Reference: article PMC11243066, “Synthesis and Biological Evaluation of Novel Biased Mu-Opioid Receptor Agonists” (Molecules, 2024)
Where two headings read alike, the source gives them in different places.

What was measured:
[1] = test system: mice; assay: Hot-water tail withdrawal test; format: in vivo, CD-1 mice; settings: 20 mg/kg i.v. tail vein, 15 min post administration
Description: (§1) Food and water were provided ad libitum.
The hot-water tail withdrawal test was performed as described previously. In brief, the hot-water tail withdrawal test was conducted using a water bath maintained at 55 ± 0.5 °C. The distal 3 cm section of the mouse’s tail was immersed perpendicularly into the hot water. The duration for which the tail remained in the water was recorded as the initial tail withdrawal latency (TWL0). […] Following the administration of a single dose of the test compound (20 mg/kg, i.v.) or vehicle, the subsequent tail withdrawal latency (TWL) was measured at various time intervals (15, 30, 45, 60, and 90 min). To prevent potential tissue damage, a maximum cutoff latency of 16 s was enforced. Antinociception was quantified using the percentage of maximal possible effect (%MPE), calculated as %MPE = 100 × (TWL − TWL0)/(16 − TWL0).

[2] = molecular target: T1, human μOR β-arrestin2 pathway (Homo sapiens, UniProt P35372); assay: cell-based; format: cell-based; settings: for Emax: read-out: Max Effect ± SEM (%), µOR β-arrestin recruitment assay; for EC50: "-" = no measurable activity, read-out: EC50 (nM) (95% CI), µOR β-arrestin recruitment assay
T1 construct: β-galactosidase enzyme fragment (PathHunter complementation tag); host or cells: U2OS (U2OS/human μOR β-arrestin cells)
T1 sequence (P35372 whole entry, the tested form may be a part): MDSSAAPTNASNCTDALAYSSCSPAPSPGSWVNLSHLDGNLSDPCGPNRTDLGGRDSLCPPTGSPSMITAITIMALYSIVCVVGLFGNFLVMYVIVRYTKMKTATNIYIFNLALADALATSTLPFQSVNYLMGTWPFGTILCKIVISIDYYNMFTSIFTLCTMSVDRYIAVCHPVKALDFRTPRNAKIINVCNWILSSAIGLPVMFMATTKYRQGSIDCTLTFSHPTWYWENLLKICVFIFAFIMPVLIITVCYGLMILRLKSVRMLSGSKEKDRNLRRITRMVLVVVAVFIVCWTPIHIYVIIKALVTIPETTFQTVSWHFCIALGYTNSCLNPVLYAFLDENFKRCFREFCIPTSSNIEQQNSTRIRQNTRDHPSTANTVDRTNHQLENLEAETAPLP
Description: In this assay, optical signal values were detected employing the PathHunter® (DiscoverX, Shanghai, China) Detection Kit assay method. The agonistic activity of tested compounds on the human μOR β-arrestin2 pathway was quantified using a β-galactosidase-based enzyme fragment complementation assay. In brief, tested compound dilutions (with final concentrations of 100 μM, 50 μM, 10 μM, 1 μM, 500 nM, 100 nM, 50 nM, 10 nM, 1 nM, and 100 pM) were produced in saline or DMSO in triplicate. Next, 100 nL of the tested compound solution per well was dispensed into a 384-well cell culture plate. The U2OS/human μOR β-arrestin cells were resuspended in Opti-MEM and counted to achieve a cell density of 4000 cells per well, and 20 μL from each well was seeded into the 384-well cell culture plate. The plate was subsequently incubated at 37 °C in the dark for 120 min. Post-incubation, the cell plate was equilibrated to room temperature for 10–20 min, and 5 μL of the detection reagent were added to each well. Following a 60 min incubation at 25 °C, chemiluminescent readings were obtained using the envision system.
The cells were maintained at 37 °C with 5% CO2 in McCoy’s 5a medium with supplements and cultivated utilizing precise techniques to ensure accurate, reproducible results. Cells were gently dissociated for assays to maintain receptor integrity and resuspended in Opti-MEM® for compatibility with the PathHunter® (DiscoverX, Shanghai, China). Detection Kit. Cell density was adjusted to 4000 cells per well in a 384-well plate, to ensure that a uniform monolayer was established for the β-galactosidase assay. After seeding and incubation in the dark at 37 °C to facilitate cell attachment, the plates were equilibrated to room temperature prior to compound treatment. Serial dilutions of the compounds were assessed for pharmacological effect. A detection reagent was then added to measure β-galactosidase activity as indicative of μ-opioid receptor and β-arrestin2 interaction. Following reagent incubation, chemiluminescence was quantified, providing quantitative data on compound agonistic activity. Throughout, meticulous aseptic technique and strict adherence to protocols were imperative to ensure the integrity of the pharmacological data derived from these studies.

[3] = molecular target: T2, human μ-opioid receptor (Homo sapiens, UniProt P35372); assay: cell-based; format: cell-based; settings: CHO/μOR cells; for EC50: cAMP inhibition, "-" = no measurable activity, read-out: EC50 (nM) (95% CI), µOR-Gi/o activation assay; for EC50 / Emax: n = 3; for Emax: at the concentration printed in parentheses in the cell, read-out: Max Effect ± SEM (%), µOR-Gi/o activation assay
T2 construct: expressed in transfected cells; host or cells: CHO (CHO/μOR cells)
T2 sequence (P35372 whole entry): as the sequence (P35372 whole entry, the tested form may be a part) above
Description: The inhibition assay was performed as described previously. In brief, tested compound dilutions (with final concentrations of 100 µM, 50 µM, 10 µM, 1 µM, 500 nM, 100 nM, 50 nM, 10 nM, 1 nM, and 100 pM) were produced in saline or DMSO in triplicate. CHO/μOR cells were suspended in the assay buffer and counted, maintaining a cell density of 2000 cells per well, with 5 µL from each well seeded into a 384-well plate. Subsequently, 5 µL of the tested compound solution per well was dispensed into the plate, which was then placed in a 25 °C incubator and incubated in the dark for 30 min. Next, 10 µL of cAMP standard working solution was added to the empty wells of the plate, followed by the addition of 5 µL of Eu-cAMP and Anti-cAMP per well. The plate was subsequently placed back in a 25 °C incubator and further incubated in the dark for 1 h.
CHO cells expressing the human μ-opioid receptor were cultivated for the assessment of compound effects. […] Cells collected during the exponential phase of growth were dissociated without enzymes to preserve receptor integrity, resuspended in assay buffer, and counted to achieve a uniform concentration. Cell density was adjusted to 2000 cells per well in a 384-well plate, promoting uniform distribution and optimal receptor presence. Post-seeding at 25 °C in darkness facilitated cell adherence and stabilization prior to compound introduction. Compounds were added in serial dilutions, with meticulous dispensing techniques ensuring dose uniformity. Following a 1 h incubation at 25 °C, TR-FRET reagents were applied to measure cAMP levels, indicative of μOR activity. The Envision system recorded these levels, quantifying compound inhibitory effects. Meticulous aseptic techniques and vigilant monitoring were imperative throughout to guarantee data precision from the assay.

[4] = test system: mice; assay: Acetic acid-induced writhing test; format: in vivo, CD-1 mice; settings: 20 mg/kg i.v. tail vein
Description: as §1
The acetic acid-induced writhing test was performed as described previously. In brief, after pretreatment with the test compound at a dose of 20 mg/kg via intravenous tail vein injection, 1% (v/v) glacial acetic acid was administered intraperitoneally (i.p.) at a dose of 10 mL/kg. Subsequently, the number of writhing responses over a 20 min period was recorded. The antinociception rate was calculated as the percentage of maximal possible effect (%MPE), where %MPE = 100 × (NWV − NWT)/NWV. NWV and NWT represent the average number of writhing responses of the vehicle and test groups, respectively.

[5] = test system: mice; assay: Formalin paw-licking test; format: in vivo, CD-1 mice; settings: 20 mg/kg i.v. tail vein, Phase II
Description: as §1
The formalin injection assay was performed as described previously. […] After 15 min, 30 µL of a 2.7% formalin solution was administered into the right hind paw of each mouse. Then, the mice were put into the cage and their behaviors were observed. The antinociception rate was quantified as the percentage of maximal possible effect (%MPE), calculated as %MPE = 100 × (PLTV − PLTT)/PLTV; PLTV and PLTT represent the average paw-licking duration during Phase II for the vehicle and test groups, respectively.

[6] = test system: mice; assay: Respiratory depression (blood pO2, blood gas analyzer); settings: single i.v. dose 20 mg/kg (morphine 4 mg/kg), 5-40 min
Description: (§2) The mice were group-housed in a controlled temperature environment and subjected to a 12 h light/dark cycle (lights on from 07:00 to 19:00). Food and water were provided ad libitum. All animal procedures were conducted in accordance with the policies and recommendations of the International Association for the Study of Pain and the National Health and Animal Welfare Committee of the Beijing Institute of Pharmacology, with the aim of minimizing the number of animals used and their suffering.

[7] = test system: mice; assay: Physical dependence (naloxone-precipitated withdrawal jumping); settings: i.v. once daily for 5 days, PZM21 and 6a 20 mg/kg, morphine 2 mg/kg, jumps over 20 min
Description: as §2

[8] = U2OS/human μOR β-arrestin cells, at the concentration printed in parentheses in the cell, n = 3
[9] = U2OS/human μOR β-arrestin cells, n = 3

SMILES	pain inhibition rate (%MPE), hot-water tail-withdrawal test [1]	Emax [2, 8]	EC50 [2, 9]	EC50 [3]	Emax [3]	analgesia rate (%MPE), acetic acid-induced writhing [4]	antinociceptive efficacy (%MPE), formalin-induced paw licking, second phase [5]	µOR agonist efficacy in Gi/o-protein signaling assay (in words) [3]	Emax ([2]; U2OS)	respiratory depression: partial pressure of oxygen in blood vs vehicle [6]	physical dependence: jumping after naloxone-precipitated withdrawal vs vehicle [7]
CN(C)[C@H](CNC(=O)NCCc1ccccc1)Cc1cccc2ccccc12 [6b, (S)-1-(2-(dimethylamino)-3-(naphthalen-1-yl)propyl)-3-phenethyl urea]	35.89%	1.99 ± 1.77%	> 100000 nM	110 nM	73.9 ± 2.38%	–	–	–	–	–	–
CN(C)[C@H](CNC(=O)NCc1ccc(F)cc1)Cc1cccc2ccccc12 [6c, (S)-1-(2-(dimethylamino)-3-(naphthalen-1-yl)propyl)-3-(4-fluorobenzyl) urea]	–	1.06 ± 0.93%	> 100000 nM	72.8 nM	42.67 ± 0.27%	–	–	–	–	–	–
CN(C)[C@H](CNC(=O)NCCc1ccc(F)cc1)Cc1cccc2ccccc12 [6d, (S)-1-(2-(dimethylamino)-3-(naphthalen-1-yl)propyl)-3-(4-fluorophenethyl) urea]	–	7.72 ± 2.88%	> 100000 nM	88 nM	87.8 ± 1.18%	–	–	–	–	–	–
COc1ccc(CCNC(=O)NC[C@H](Cc2cccc3ccccc23)N(C)C)cc1 [6e, (S)-1-(2-(dimethylamino)-3-(naphthalen-1-yl)propyl)-3-(4-methoxyphenethyl) urea]	–	2.95 ± 1.37%	> 100000 nM	> 100000 nM	-1.41 ± 5.21%	–	–	–	–	–	–
Cc1ccccc1CCNC(=O)NC[C@H](Cc1cccc2ccccc12)N(C)C [6f, (S)-1-(2-(dimethylamino)-3-(naphthalen-1-yl)propyl)-3-(2-methylphenethyl) urea]	–	5.45 ± 1.75%	> 100000 nM	107 nM	84.8 ± 1.86%	exceeding 97%	59.32%	significant µOR agonist efficacy	–	–	–
CN(C)[C@H](CNC(=O)Nc1ccccc1)Cc1cccc2ccccc12 [6g, (S)-1-(2-(dimethylamino)-3-(naphthalen-1-yl)propyl)-3-phenyl urea]	–	1.12 ± 0.52%	> 100000 nM	59.5 nM	24.6 ± 0.4%	–	–	significant µOR agonist efficacy	–	–	–
Cc1ccccc1CNC(=O)NC[C@H](Cc1cccc2ccccc12)N(C)C [6h, (S)-1-(2-(dimethylamino)-3-(naphthalen-1-yl)propyl)-3-(2-methylbenzyl) urea]	41.73%	2.19 ± 1.91%	> 100000 nM	13.1 nM	41.7 ± 0.07%	exceeding 97%	78.03%	significant µOR agonist efficacy	–	–	–
Cc1ccccc1NC(=O)NC[C@H](Cc1cccc2ccccc12)N(C)C [6i, (S)-1-(2-(dimethylamino)-3-(naphthalen-1-yl)propyl)-3-(o-tolyl) urea]	–	1.96 ± 0.72%	> 100000 nM	> 100000 nM	7.1 ± 0.77%	–	–	–	–	–	–
CN(C)[C@H](CNC(=O)NCc1ccco1)Cc1cccc2ccccc12 [6j, (S)-1-(2-(dimethylamino)-3-(naphthalen-1-yl)propyl)-3-(furan-2-ylmethyl) urea]	–	1.63 ± 0.32%	> 100000 nM	97.8 nM	27.2 ± 1.71%	–	–	significant µOR agonist efficacy	–	–	–
CN(C)[C@H](CNC(=O)NCC1CCCCC1)Cc1cccc2ccccc12 [6k, (S)-1-(cyclohexylmethyl)-3-(2-(dimethylamino)-3-(naphthalen-1-yl)propyl) urea]	–	4.15 ± 0.02%	> 100000 nM	> 100000 nM	20.4 ± 10.6%	exceeding 97%	–	–	–	–	–
CN(C)[C@H](CNC(=O)NC1CCCCC1)Cc1cccc2ccccc12 [6l, (S)-1-cyclohexyl-3-(2-(dimethylamino)-3-(naphthalen-1-yl)propyl) urea]	–	1.96 ± 0.45%	> 100000 nM	> 100000 nM	18.1 ± 1.81%	–	–	–	–	–	–
C[C@@H](NC(=O)[C@@H](N)Cc1ccc(O)cc1)C(=O)NCC(=O)N(C)[C@@H](Cc1ccccc1)C(=O)NCCO [DAMGO, [D-Ala2, N-MePhe4, Gly-ol]-enkephalin, reference compound]	–	–	–	–	–	–	–	–	91.2%	–	–
CN1CC[C@]23c4c5ccc(O)c4O[C@H]2[C@@H](O)C=C[C@H]3[C@H]1C5 [Morphine]	–	–	–	–	–	–	–	–	–	significant reduction in the partial pressure of oxygen level	significantly greater frequency of jumping
C[C@@H](Cc1ccsc1)NC(=O)NC[C@H](Cc1ccc(O)cc1)N(C)C [PZM21, reference compound]	69.23%	3.09 ± 0.42%	–	–	89.8 ± 2.93%	–	72.72%	significant µOR agonist efficacy	–	neither the 6a group nor the PZM21 group demonstrated any reduction in respiratory measures	neither 6a nor PZM21 elicited a significant increase in withdrawal behaviors
